# Values of other authors in paper PMC9851200, “Multiparameter phenotypic screening for endogenous TFEB and TFE3 translocation identifies novel chemical series modulating lysosome function” (Autophagy, 2022).
# What was measured:
# Set-up in all cases: method as in original PKIS2 published data
# [1] = molecular target: kinases (KINOMEscan panel) (Homo sapiens, UniProt Q05655); conditions: kinase PRKCD; Published KINOMEscan; ref original PKIS2 published data; cited from earlier work
# [2] = molecular target: T1, kinases (KINOMEscan panel) (Homo sapiens, UniProt O95835); conditions: LATS1; Published KINOMEscan; ref original PKIS2 published data; cited from earlier work
# T1 sequence (O95835 1-1130): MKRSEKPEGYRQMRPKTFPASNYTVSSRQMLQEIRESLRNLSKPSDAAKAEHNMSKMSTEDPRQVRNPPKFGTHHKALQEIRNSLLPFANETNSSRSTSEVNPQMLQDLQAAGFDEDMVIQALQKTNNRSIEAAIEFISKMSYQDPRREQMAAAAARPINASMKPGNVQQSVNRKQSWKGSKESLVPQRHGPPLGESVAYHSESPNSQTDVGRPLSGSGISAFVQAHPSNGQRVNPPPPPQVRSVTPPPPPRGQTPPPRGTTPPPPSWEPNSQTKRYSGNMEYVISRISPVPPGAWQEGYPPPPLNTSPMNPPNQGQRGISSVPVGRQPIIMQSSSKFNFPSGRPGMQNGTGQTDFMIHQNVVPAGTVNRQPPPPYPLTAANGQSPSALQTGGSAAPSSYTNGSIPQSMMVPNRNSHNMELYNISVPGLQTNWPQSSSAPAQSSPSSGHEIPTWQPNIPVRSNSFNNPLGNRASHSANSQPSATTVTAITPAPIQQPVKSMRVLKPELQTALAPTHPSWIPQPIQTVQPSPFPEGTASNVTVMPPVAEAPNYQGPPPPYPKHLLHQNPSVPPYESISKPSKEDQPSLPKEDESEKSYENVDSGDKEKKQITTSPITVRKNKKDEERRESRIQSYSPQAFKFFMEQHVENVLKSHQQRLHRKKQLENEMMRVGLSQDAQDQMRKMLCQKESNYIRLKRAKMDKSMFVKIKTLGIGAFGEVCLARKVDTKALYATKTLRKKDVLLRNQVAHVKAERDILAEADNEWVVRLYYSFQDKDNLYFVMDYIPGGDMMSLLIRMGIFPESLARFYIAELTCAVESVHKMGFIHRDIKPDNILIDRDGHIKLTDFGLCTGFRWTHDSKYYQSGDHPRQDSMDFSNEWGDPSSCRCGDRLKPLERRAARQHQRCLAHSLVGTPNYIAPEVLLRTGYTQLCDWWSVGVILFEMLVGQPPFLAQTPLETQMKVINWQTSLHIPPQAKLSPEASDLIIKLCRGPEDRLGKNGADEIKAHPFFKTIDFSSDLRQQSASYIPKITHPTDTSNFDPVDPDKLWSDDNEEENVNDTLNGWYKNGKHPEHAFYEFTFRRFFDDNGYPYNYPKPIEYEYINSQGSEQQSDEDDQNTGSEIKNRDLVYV
# [3] = molecular target: kinases (KINOMEscan panel) (Homo sapiens, UniProt O96017); conditions: kinase CHEK2; Published KINOMEscan; ref original PKIS2 published data; cited from earlier work
# Chain of kinases (KINOMEscan panel) (Homo sapiens, UniProt O96017) (O96017 whole entry): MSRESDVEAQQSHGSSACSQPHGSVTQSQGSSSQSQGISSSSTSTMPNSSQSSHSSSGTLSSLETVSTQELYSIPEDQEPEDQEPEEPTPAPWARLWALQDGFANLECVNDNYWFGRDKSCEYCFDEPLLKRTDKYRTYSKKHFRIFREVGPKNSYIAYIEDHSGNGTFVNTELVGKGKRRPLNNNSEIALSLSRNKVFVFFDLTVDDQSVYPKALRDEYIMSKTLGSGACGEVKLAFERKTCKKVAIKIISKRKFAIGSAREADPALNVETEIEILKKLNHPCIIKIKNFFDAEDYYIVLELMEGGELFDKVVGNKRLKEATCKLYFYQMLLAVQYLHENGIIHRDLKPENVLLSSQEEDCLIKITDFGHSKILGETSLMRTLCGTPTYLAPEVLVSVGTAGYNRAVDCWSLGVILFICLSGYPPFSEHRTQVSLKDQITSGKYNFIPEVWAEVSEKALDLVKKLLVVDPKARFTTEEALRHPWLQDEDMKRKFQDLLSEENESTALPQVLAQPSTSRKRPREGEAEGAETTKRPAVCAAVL
# [4] = molecular target: T2, kinases (KINOMEscan panel) (Homo sapiens, UniProt Q8WXR4); conditions: MYO3B; Published KINOMEscan; ref original PKIS2 published data; cited from earlier work
# T2 sequence (Q8WXR4 1-1341): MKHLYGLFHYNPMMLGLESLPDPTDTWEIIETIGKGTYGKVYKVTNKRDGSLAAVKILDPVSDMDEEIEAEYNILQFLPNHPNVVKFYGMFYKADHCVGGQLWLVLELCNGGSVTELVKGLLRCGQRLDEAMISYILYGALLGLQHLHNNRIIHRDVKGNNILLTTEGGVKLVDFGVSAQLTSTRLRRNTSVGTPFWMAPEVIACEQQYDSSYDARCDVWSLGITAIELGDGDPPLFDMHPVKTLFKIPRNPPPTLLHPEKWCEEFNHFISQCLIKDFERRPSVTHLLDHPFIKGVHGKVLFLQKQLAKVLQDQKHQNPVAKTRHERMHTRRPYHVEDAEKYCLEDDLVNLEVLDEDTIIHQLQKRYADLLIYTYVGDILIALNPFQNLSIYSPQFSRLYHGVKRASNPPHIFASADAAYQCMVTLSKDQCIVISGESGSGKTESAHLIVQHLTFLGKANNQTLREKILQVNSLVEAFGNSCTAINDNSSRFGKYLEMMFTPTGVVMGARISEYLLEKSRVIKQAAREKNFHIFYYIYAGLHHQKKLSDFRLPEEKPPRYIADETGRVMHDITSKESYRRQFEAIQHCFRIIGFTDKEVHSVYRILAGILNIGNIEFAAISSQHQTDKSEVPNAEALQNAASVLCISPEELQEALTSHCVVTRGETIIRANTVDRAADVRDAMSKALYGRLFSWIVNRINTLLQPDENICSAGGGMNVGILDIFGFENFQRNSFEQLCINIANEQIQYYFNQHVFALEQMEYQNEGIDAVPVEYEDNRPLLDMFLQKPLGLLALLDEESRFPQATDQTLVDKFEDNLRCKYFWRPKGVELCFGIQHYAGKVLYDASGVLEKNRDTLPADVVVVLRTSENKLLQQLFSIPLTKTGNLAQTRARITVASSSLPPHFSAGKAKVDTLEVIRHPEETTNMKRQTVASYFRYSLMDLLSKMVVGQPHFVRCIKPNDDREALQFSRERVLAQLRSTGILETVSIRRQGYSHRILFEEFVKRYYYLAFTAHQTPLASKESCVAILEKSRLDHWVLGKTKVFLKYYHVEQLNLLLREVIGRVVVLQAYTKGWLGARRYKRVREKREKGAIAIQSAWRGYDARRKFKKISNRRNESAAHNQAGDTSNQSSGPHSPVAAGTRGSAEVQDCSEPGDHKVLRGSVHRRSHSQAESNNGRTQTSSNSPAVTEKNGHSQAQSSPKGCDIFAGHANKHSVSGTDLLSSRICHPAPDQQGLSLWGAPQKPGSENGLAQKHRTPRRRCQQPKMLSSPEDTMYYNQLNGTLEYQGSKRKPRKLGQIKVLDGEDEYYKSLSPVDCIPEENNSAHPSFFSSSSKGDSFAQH
# [5] = molecular target: kinases (KINOMEscan panel) (Homo sapiens, UniProt P54756); conditions: kinase EPHA5; Published KINOMEscan; ref original PKIS2 published data; cited from earlier work
# Chain of kinases (KINOMEscan panel) (Homo sapiens, UniProt P54756) (P54756 25-1037): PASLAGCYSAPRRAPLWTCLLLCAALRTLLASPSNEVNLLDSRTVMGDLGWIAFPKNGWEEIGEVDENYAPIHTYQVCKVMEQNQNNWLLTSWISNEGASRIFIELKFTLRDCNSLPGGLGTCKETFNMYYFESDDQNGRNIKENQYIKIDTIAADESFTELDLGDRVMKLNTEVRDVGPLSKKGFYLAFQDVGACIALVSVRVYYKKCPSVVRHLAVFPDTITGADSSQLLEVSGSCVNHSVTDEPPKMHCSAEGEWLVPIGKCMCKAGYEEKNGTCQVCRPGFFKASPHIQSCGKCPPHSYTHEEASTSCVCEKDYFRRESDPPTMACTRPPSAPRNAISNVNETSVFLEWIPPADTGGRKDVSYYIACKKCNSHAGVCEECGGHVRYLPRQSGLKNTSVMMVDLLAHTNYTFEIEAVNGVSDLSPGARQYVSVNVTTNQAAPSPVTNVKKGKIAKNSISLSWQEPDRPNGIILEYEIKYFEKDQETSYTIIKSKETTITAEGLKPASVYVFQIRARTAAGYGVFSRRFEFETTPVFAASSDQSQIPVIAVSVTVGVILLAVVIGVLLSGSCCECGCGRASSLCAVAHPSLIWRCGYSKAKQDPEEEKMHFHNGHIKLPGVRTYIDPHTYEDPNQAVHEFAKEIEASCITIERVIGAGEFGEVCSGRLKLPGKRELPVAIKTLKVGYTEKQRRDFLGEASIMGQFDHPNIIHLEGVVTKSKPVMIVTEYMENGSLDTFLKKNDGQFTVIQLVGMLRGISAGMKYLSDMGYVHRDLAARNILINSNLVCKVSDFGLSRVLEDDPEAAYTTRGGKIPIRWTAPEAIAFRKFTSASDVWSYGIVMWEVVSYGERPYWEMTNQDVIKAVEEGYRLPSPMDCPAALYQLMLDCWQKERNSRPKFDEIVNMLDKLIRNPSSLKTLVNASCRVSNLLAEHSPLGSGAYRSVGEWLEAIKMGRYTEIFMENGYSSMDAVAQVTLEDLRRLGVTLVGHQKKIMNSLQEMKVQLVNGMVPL
# Chain of kinases (KINOMEscan panel) (Homo sapiens, UniProt Q05655) (Q05655 whole entry): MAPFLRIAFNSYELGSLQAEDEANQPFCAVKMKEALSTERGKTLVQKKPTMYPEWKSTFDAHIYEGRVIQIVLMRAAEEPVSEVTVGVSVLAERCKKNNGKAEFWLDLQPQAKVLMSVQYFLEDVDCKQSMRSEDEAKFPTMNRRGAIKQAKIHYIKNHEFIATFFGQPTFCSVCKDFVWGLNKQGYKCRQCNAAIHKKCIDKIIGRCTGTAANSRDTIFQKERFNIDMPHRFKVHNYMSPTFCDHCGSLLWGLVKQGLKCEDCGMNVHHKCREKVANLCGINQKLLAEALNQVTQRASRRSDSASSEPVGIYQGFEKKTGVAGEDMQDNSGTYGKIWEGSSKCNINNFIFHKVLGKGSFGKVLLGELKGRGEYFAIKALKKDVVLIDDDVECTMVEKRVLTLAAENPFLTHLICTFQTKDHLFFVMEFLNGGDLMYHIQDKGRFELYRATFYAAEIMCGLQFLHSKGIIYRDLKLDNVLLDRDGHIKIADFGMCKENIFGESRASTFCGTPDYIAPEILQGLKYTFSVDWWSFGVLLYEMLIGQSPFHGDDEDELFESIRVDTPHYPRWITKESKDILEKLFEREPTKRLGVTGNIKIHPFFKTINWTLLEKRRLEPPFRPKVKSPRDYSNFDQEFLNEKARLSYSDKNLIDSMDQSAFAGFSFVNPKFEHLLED
structure (smiles),measurement,setting,value
Cc1cccc(-c2nc(Nc3ccncc3)c3ccccc3n2)n1 [NK215],KINOMEscan PRKCD,[1],29
same,KINOMEscan LATS1,[2],3
same,KINOMEscan CHEK2,[3],0
same,KINOMEscan MYO3B,[4],17
same,KINOMEscan EPHA5,[5],0
